The values that follow come from patent US7201896B1, “IL6RIL6 chimera for the treatment of neurodegenerative diseases” (Yeda Research and Development Company Ltd., priority 1999, dated 2007).

Assay [1] deals with hippocampal organotypic slices. The assay can be described thus: NMDA-induced cell death in hippocampal organotypic slices, propidium iodide. It is filed as cell-based, rat. To be noted: 0.1 ng/ml. How it is done: The cultures were prepared as previously described by Bahr et al. (Bahr 1995) with minor modifications. Hippocampi were dissected out from eight day old Wistar rats and 400 μm thick slices were laid down on a porous and transparent Millicell-CM membrane (Millipore) and cultured in 6 wells multiwell plates. Four slices were placed on each membrane. Culture medium consisted of 50% minimal essential medium (+25 mM HEPES, +4 mM NaHCO3+NaOH pH 7.2), 25% horse serum and 25% Hanks' solution, glucose (6.4 g/l), penicillin/streptomycin (10 ml/l), L-glutamine (2 mM). Cultures were kept in a 5% CO2 incubator set at a temperature of 37° C. for at least 3 weeks before being used. Medium was changed every week.
Hippocampal slices were exposed to IL6 or to the IL6 chimera at concentrations ranging […] for 15 min, thereafter NMDA 50 μM was added for additional 30 min. […] NMDA-induced cell death was evaluated either 1 or 3–7 days after the experimental injury by incubating cultures for 1 hour in fresh medium containing propidium iodide (PI 5 μl/ml). […] The emitted red fluorescence (marker of cell death) was examined using an inverted fluorescence microscope (Zeiss) associated with an intensified charged-coupled device camera. Quantification of total fluorescence was performed by an image analysis system (Image Pro Plus).

For assay [2], the system named is rat cerebellar granule cells. The assay can be described thus: Glutamate-induced neurotoxicity in primary cerebellar granule cells. Format: cell-based. To be noted: 0.1 to 10 ng/ml; glutamate 50 μM. How it is done: Activation of glutamate ionotropic receptors represents the primary event in the neurotoxicity process triggered by excitatory amino acids. Primary cultures of new born rat cerebella neurons (which contain >97% neurons) were employed for studying the effects of the IL6 chimera on glutamate-induced neurotoxicity and compared to the effects of IL-6.
Primary cultures of cerebellar granule cells were prepared from 8 day-old Sprague-Dawley rat pups as previously described (Pizzi et al. 1993). Cells were plated onto poly-L-Lysine-coated dishes and cultured in basal Eagle's medium containing 10% heat-inactivated foetal bovine serum, glutamine (2 mM), gentamicin (50 μg/ml), and KCl (25 mM), at a density of 2.5×10^5 cells/cm^2. Cytosine Arabinoside (10 μM) was added to the cultures 18 h after seeding to prevent non neuronal cell proliferation. Experiments were carried out after culturing the neurons for 10 days.
Unless otherwise indicated, cultures were exposed for 15 min to 50 μM glutamate in a Mg^2+-free Locke's solution. IL6 or the IL6 chimera were added 5 min before glutamate treatment. Dishes were then returned to cultured conditioned medium at 37° C. in 95% air/5% CO2 and cell viability was measured 18–24 hours later.
Cell viability was evaluated 18 h later by intravital staining with fluorescein diaceate and propidium iodide mixture, as previously described (Pizzi et al. 1993). […]

Assay [3] relates to Rat sciatic nerve Schwann cell lines cells with murine DRG neurons. The assay can be described thus: Co-culture of DRG neuronal cells with fluorogold-labeled Schwann cells. Format: cell-based. From the text:
By culturing murine DRG in the presence of DNA synthesis inhibitors arabinoseC (AraC) and fluorodeoxyuridine (FudR), neuronal cells can develop axons while glial cell proliferation is inhibited. These DRG cultures can be used as a source of neuronal cells with non-myelinated axons. Schwann cells are exogenously added to these cultures to study the interaction between neurons and Schwann cells.
Rat sciatic nerve Schwann cell lines cells were labeled with fluorogold, a label that penetrates the cell membrane lipid bi-layer and is maintained for an extensive period of time without affecting cell function. […] This system allows to study the various steps in the myelination process which are affected by the IL-6 chimera.

Assay [4] has as its system dorsal root ganglia (DRG) explants, embryonic Schwann cells. The assay can be described thus: Embryonic dorsal root ganglia (DRG) explant cultures: microscopy, scanning EM, anti-MBP staining. Particulars: IL6RIL6 3 μg/ml, NGF 40 ng/ml. Format: cell-based, mouse. Here is the method: In the spinal cord, the dorsal root comprises essentially sensory neurons, which form synapses in the dorsal root ganglia (DRG). During mouse embryogenesis (at day e14–e15), DRGs are a convenient source of neurons and of embryonic Schwann cells which have not yet differentiated into myelinating SC. Procedures to obtain explants of DRGs for in vitro cultures are described by Li (1998). The cultures were performed on glass coverslips placed in the wells of Costar plates, in medium F12/DMEM (Gibco). The coverslips were coated either with collagen or with poly-D-lysine, with essentially similar results. Cultures were either done in medium without growth factor or cytokine additions or in medium supplemented with nerve growth factor (NGF, 40 ng/ml), or in medium supplemented with IL6RIL6 chimeric recombinant proteins (3 μg/ml). The cultures were examined daily by light microscopy with an Olympus inverted microscope linked to a video-camera imaging system (Leica LIDA system). Part of the coverslips were fixed in paraformaldehyde and MBP proteins were labeled with monoclonal primary antibodies to myelin basic proteins and fluorescein-conjugated secondary antibody. Neuronal cell bodies and axons were stained with antibodies to neurofilament protein. Some of the coverslips were examined by scanning electron microscopy (EM).

As to “IL-6: Interleukin-6, cytokine used as comparator”, in assay [1] (after one day, NMDA 50 μM), the “neuronal cells protected from NMDA-induced cell death” value is given as “approximately 50%”. In assay [1] (day 5), the “cells protected from NMDA-induced cell death” value was found to be 30%. Further, the “protection from glutamate-induced neurotoxicity” value in assay [2] is “no protective effect”.

Turning to NGF: nerve growth factor, the “sheath formation around the axons” value in assay [3] (after a few days) is given as “do not form a sheath”. Besides, in assay [3] (within 5 hours), the “binding of the Schwann cells along the axons” value is given as “bind much less”. In addition, the “Staining with anti-MBP” value in assay [4] is “little MBP-specific fluorescence”. In addition, the “Schwann cells along axons in DRG explant cultures” value in assay [4] (after 2 to 5 days) was “no Schwann cells were observed along the axons”.
